Data as given in the supplement of paper PMC10883282.
Where a name gives a salt, the structure may show the parent alone. ± gives the standard deviation of the averaged measurements.

Tested on: A204
Experiment: relative viability vs DMSO control (72 h) (fraction); higher = more viable cells
Summary of the method: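 Relative viability is percent growth read by ATPLite and averaged over up to triplicate wells. Sarcoma cells were seeded in 384-well plates to reach 80–90% confluence and given 2.5 µl of serially diluted compound after 24 h, from source plates of 10 mM to 0.0002 mM. Incubation lasted 72 h at 37 °C, 5% CO2, with 0.1% DMSO vehicle and a 5 µM positive control, and the data were rescaled so 1 equals full and 0 equals none.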

Row | Structure (SMILES) | relative viability (0.00017 µM) | relative viability (0.00051 µM) | relative viability (0.00152 µM) | relative viability (0.00457 µM) | relative viability (0.01372 µM) | relative viability (0.04115 µM) | relative viability (0.1235 µM) | relative viability (0.3704 µM) | relative viability (1.111 µM) | relative viability (3.333 µM) | relative viability (10 µM)
1 | Cc1cc(C)c(/C=C2\C(=O)Nc3ccccc32)[nH]1 [Semaxanib] | 1.02 ± 0.067 | 1.03 ± 0.021 | 0.964 ± 0.055 | 0.966 ± 0.067 | 0.977 ± 0.052 | 0.925 ± 0.075 | 0.883 ± 0.015 | 0.852 ± 0.032 | 0.823 ± 0.041 | 0.568 ± 0.043 | 0.33 ± 0.032
2 | CC1(C)CNc2cc(NC(=O)c3cccnc3NCc3ccncc3)ccc21 [Motesanib] | 0.977 ± 0.038 | 1.01 ± 0.046 | 1.01 ± 0.037 | 0.995 ± 0.015 | 0.968 ± 0.025 | 0.895 ± 0.045 | 0.76 ± 0.059 | 0.524 ± 0.017 | 0.393 ± 0.0075 | 0.3783 ± 0.0025 | 0.312 ± 0.012
3 | CNC(=O)c1ccc(-c2cnc3ncc(Cc4ccc5ncccc5c4)n3n2)cc1F [Capmatinib] | 1.1 ± 0.029 | 1.07 ± 0.019 | 1.08 ± 0.04 | 1.08 ± 0.024 | 1.07 ± 0.038 | 1.06 ± 0.015 | 1.1 ± 0.02 | 1.07 ± 0.054 | 1.04 ± 0.027 | 0.984 ± 0.054 | 0.787 ± 0.035
4 | CC(C)N1CCN(Cc2cnc(-c3cc(-c4cccc5[nH]ccc45)cc4[nH]ncc34)o2)CC1 [Nemiralisib] | 0.981 ± 0.046 | 0.988 ± 0.022 | 0.998 ± 0.039 | 0.982 ± 0.015 | 0.97 ± 0.058 | 0.97 ± 0.017 | 0.956 ± 0.0079 | 0.897 ± 0.03 | 0.847 ± 0.053 | 0.631 ± 0.035 | 0.359 ± 0.021
5 | CO[C@H]1C[C@@H]2CC[C@@H](C)[C@@](O)(O2)C(=O)C(=O)N2CCCC[C@H]2C(=O)O[C@H]([C@H](C)C[C@@H]2CC[C@@H](OP(C)(C)=O)[C@H](OC)C2)CC(=O)[C@H](C)/C=C(\C)[C@@H](O)[C@@H](OC)C(=O)[C@H](C)C[C@H](C)/C=C/C=C/C=C/1C [Ridaforolimus] | 0.996 ± 0.029 | 0.915 ± 0.019 | 0.783 ± 0.025 | 0.677 ± 0.047 | 0.601 ± 0.07 | 0.582 ± 0.036 | 0.576 ± 0.02 | 0.512 ± 0.042 | 0.532 ± 0.023 | 0.513 ± 0.043 | 0.499 ± 0.0088
6 | Nc1cc(C(F)(F)F)c(-c2cc(N3CCOCC3)nc(N3CCOCC3)n2)cn1 [Buparlisib] | 1.05 ± 0.023 | 1.03 ± 0.021 | 1.05 ± 0.032 | 1.02 ± 0.013 | 1.03 ± 0.065 | 1.01 ± 0.038 | 0.879 ± 0.021 | 0.673 ± 0.011 | 0.332 ± 0.066 | 0.174 ± 0.0058 | 0.155 ± 0.0086
7 | Cc1ccc(F)c(NC(=O)Nc2ccc(-c3cccc4[nH]nc(N)c34)cc2)c1 [Linifanib] | 1.07 ± 0.037 | 1.11 ± 0.047 | 1.08 ± 0.037 | 1.073 ± 0.0063 | 1.06 ± 0.02 | 0.973 ± 0.13 | 0.659 ± 0.03 | 0.469 ± 0.066 | 0.435 ± 0.034 | 0.414 ± 0.032 | 0.439 ± 0.01
8 | N#CC[C@H](C1CCCC1)n1cc(-c2ncnc3[nH]ccc23)cn1 [Ruxolitinib] | 1.02 ± 0.015 | 1.03 ± 0.018 | 1.02 ± 0.049 | 1.02 ± 0.027 | 1.01 ± 0.026 | 1.01 ± 0.005 | 1.008 ± 0.0097 | 0.983 ± 0.031 | 0.96 ± 0.083 | 0.789 ± 0.053 | 0.655 ± 0.05
9 | C=CC(=O)Nc1cccc(Oc2nc(Nc3ccc(N4CCN(C)CC4)cc3)nc3ccsc23)c1 [Olmutinib] | 1.09 ± 0.028 | 1.05 ± 0.038 | 1.06 ± 0.019 | 1.06 ± 0.039 | 1.05 ± 0.031 | 1.05 ± 0.02 | 1.01 ± 0.03 | 1.03 ± 0.022 | 0.929 ± 0.054 | 0.568 ± 0.064 | 0.177 ± 0.031
10 | CCCS(=O)(=O)Nc1ccc(F)c(C(=O)c2c[nH]c3ncc(-c4ccc(Cl)cc4)cc23)c1F [Vemurafenib] | 1.066 ± 0.009 | 1.09 ± 0.011 | 1.07 ± 0.067 | 1.09 ± 0.043 | 1.08 ± 0.047 | 1.07 ± 0.018 | 1.07 ± 0.038 | 1.11 ± 0.025 | 1.12 ± 0.027 | 1.02 ± 0.054 | 0.617 ± 0.029
11 | Cc1ccc(NC(=O)c2ccc(CN3CCN(C)CC3)cc2)cc1Nc1nc(-c2cccnc2)cs1 [Masitinib] | 1.01 ± 0.019 | 1.03 ± 0.039 | 1.06 ± 0.013 | 1.05 ± 0.065 | 1.09 ± 0.03 | 0.976 ± 0.033 | 0.772 ± 0.012 | 0.472 ± 0.011 | 0.303 ± 0.015 | 0.194 ± 0.015 | 0.0391 ± 0.0062
12 | Cc1cnc(Nc2ccc(OCCN3CCCC3)cc2)nc1Nc1cccc(S(=O)(=O)NC(C)(C)C)c1 [Fedratinib] | 1.07 ± 0.066 | 1.07 ± 0.022 | 1.13 ± 0.041 | 1.08 ± 0.035 | 1.09 ± 0.017 | 1.02 ± 0.034 | 0.97 ± 0.035 | 0.712 ± 0.088 | 0.396 ± 0.056 | 0.13 ± 0.016 | 0.0146 ± 0.0016
13 | C[C@@H](c1ccc2nccn2c1)n1nnc2ncc(-c3cnn(C)c3)nc21 [Volitinib] | 1.05 ± 0.014 | 1.08 ± 0.046 | 1.1 ± 0.031 | 1.08 ± 0.038 | 1.08 ± 0.033 | 1.07 ± 0.026 | 1.06 ± 0.031 | 1.06 ± 0.044 | 1.05 ± 0.042 | 0.962 ± 0.038 | 0.842 ± 0.072
14 | COc1cccc2c1C(=O)c1c(O)c3c(c(O)c1C2=O)C[C@@](O)(C(=O)CO)C[C@@H]3O[C@H]1C[C@H](N)[C@H](O)[C@H](C)O1 [Doxorubicin Hydrochloride] | 1.06 ± 0.015 | 1.07 ± 0.06 | 1.04 ± 0.006 | 0.941 ± 0.031 | 0.779 ± 0.1 | 0.56 ± 0.068 | 0.314 ± 0.032 | 0.137 ± 0.024 | 0.128 ± 0.0019 | 0.123 ± 0.014 | 0.118 ± 0.019
15 | CCN1CCN(Cc2ccc(Nc3ncc(F)c(-c4cc(F)c5nc(C)n(C(C)C)c5c4)n3)nc2)CC1 [Abemaciclib] | 1.05 ± 0.033 | 1.04 ± 0.035 | 1.04 ± 0.017 | 1.03 ± 0.034 | 0.976 ± 0.015 | 0.876 ± 0.027 | 0.77 ± 0.08 | 0.564 ± 0.023 | 0.417 ± 0.024 | 0.383 ± 0.031 | 0.333 ± 0.029
16 | C=CC(=O)N1CCC([C@@H]2CCNc3c(C(N)=O)c(-c4ccc(Oc5ccccc5)cc4)nn32)CC1 [Zanubrutinib] | 1.02 ± 0.029 | 0.991 ± 0.041 | 1 ± 0.046 | 1.02 ± 0.033 | 1.013 ± 0.0088 | 0.969 ± 0.019 | 1.02 ± 0.049 | 0.944 ± 0.084 | 0.897 ± 0.071 | 0.871 ± 0.023 | 0.764 ± 0.03
17 | COc1cc2/c(=N/c3ccc(Br)cc3F)nc[nH]c2cc1OCC1CCN(C)CC1 [Vandetanib] | 1.04 ± 0.076 | 1.02 ± 0.018 | 1.02 ± 0.049 | 1.03 ± 0.067 | 1.04 ± 0.046 | 1 ± 0.067 | 0.981 ± 0.057 | 0.93 ± 0.07 | 0.706 ± 0.039 | 0.348 ± 0.073 | 0.0148 ± 0.0046
18 | C[C@@H]1COCCN1c1cc(-c2ccnn2C)c2ccnc(-c3ccn[nH]3)c2n1 | 1.07 ± 0.068 | 1.05 ± 0.039 | 1.07 ± 0.067 | 1.08 ± 0.061 | 1.03 ± 0.037 | 0.903 ± 0.019 | 0.668 ± 0.05 | 0.431 ± 0.04 | 0.291 ± 0.015 | 0.231 ± 0.0066 | 0.222 ± 0.0062
19 | C[C@]1(O)C[C@@H](c2nc(-c3ccc4ccc(-c5ccccc5)nc4c3)c3c(N)nccn32)C1 [Linsitinib] | 1.08 ± 0.049 | 1.05 ± 0.058 | 1.05 ± 0.021 | 1.06 ± 0.05 | 1.03 ± 0.017 | 1.03 ± 0.048 | 1.04 ± 0.087 | 0.99 ± 0.077 | 0.907 ± 0.063 | 0.755 ± 0.097 | 0.476 ± 0.017
